This is an account of results in article PMC6751662, “Pharmacological and functional similarities of the human neuropeptide Y system in C. elegans challenges phylogenetic views on the FLP/NPR system” (Cell Communication and Signaling : CCS, 2019).

Common to all, as to format: cell-based, C. elegans
In experiment [1] the target is T1, NPR-3 (Caenorhabditis elegans, UniProt P90745).
T1 construct: expressed in transfected cells; host or cells: HEK293
T1 sequence (P90745 1-376): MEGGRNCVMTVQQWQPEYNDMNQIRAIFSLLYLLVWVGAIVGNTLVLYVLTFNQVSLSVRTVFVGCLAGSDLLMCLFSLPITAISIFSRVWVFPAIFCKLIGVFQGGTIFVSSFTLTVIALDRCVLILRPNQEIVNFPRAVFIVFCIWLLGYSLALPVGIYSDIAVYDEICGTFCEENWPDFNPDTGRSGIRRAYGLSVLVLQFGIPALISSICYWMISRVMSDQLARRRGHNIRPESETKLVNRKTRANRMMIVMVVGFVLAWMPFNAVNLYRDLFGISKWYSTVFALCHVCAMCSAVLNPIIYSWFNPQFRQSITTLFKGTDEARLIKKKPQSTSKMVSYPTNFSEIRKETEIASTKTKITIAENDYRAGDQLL
As to the kind of experiment: cAMP reporter gene assay, Gi/o (inhibition of forskolin-induced cAMP), NPR-3. The settings on record: 1 µM forskolin set to 1.00, transiently transfected HEK293 cells, mean of at least three independent experiments. Here is the method: Activation of Gs and Gi/o was assessed with a cAMP reporter gene assay. HEK293 cells grown to 70–80% confluency in 6-well plates were transiently co-transfected with vectors encoding the receptor and the cAMP reporter gene plasmid pGL4.29 [luc2P/CRE/Hygro] (Promega; 4 μg total, 1:1 ratio) using Metafectene Pro (3 μl/μg DNA; Biontex) following the manufacturer’s instructions. 16 h post transfection, the cells were seeded into white 384-well plates at a density of 20,000 cells/well. On the next day, the medium was removed and the cells were stimulated with 20 μl of peptide solution (or forskolin as positive control) in serum-free DMEM for 4 h. For measuring Gi/o activity, the peptide solutions additionally contained 1 μM forskolin to elevate cellular cAMP levels. After incubation, the luciferase substrate OneGlo in lysis buffer (Promega) was added and the luminescence was measured in a microplate reader Tecan Spark (Tecan). Data were analyzed with GraphPad Prism 5.03 and are shown as fold of basal or fold of forskolin in case of Gαi/o activity.
For in vitro activation, data is presented as mean ± SEM of at least three independent experiments conducted in technical triplicate. […] For the C. elegans NPRs, we considered the strongest response elicited by any of the peptides downstream of a particular receptor as the receptor’s maximal signal. This may or may not be the biological maximum that can be reached by the ‘true’ endogenous agonist. For the human receptors, the response to the established endogenous agonist reflected the maximal signal.
Background: In a reporter assay the amount or activity of a reporter protein is the signal.

The target in experiment [2] is T2, NPR-11 (Caenorhabditis elegans, UniProt Q18179).
T2 construct: expressed in transfected cells; host or cells: HEK293, transient
T2 sequence (Q18179 1-402): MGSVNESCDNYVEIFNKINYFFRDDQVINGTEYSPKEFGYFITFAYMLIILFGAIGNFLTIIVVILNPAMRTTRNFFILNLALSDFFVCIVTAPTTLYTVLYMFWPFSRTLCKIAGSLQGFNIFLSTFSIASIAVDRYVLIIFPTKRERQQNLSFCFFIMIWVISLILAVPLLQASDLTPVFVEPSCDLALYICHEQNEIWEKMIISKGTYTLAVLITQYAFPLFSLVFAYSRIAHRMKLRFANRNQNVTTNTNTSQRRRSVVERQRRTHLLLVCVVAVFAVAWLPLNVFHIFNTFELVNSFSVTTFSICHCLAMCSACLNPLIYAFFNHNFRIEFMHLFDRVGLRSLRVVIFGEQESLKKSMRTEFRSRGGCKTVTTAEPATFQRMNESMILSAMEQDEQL
In words: cAMP reporter gene assay, Gi/o (inhibition of forskolin-induced cAMP), NPR-11. The settings on record: 1 µM forskolin set to 1.00, transiently transfected HEK293 cells, mean of at least three independent experiments. In short, it runs like this: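 HEK293 cells transiently co-transfected with receptor and CRE-luciferase reporter were stimulated with peptide 4 h in serum-free DMEM; Gi/o readouts included 1 μM forskolin. Luminescence given as fold of basal (Gs) or fold of forskolin (Gi/o); maximum set by strongest peptide for C. elegans receptors, endogenous agonist for human.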

Experiment [3] has as its target T3, NPR-4b (Caenorhabditis elegans, UniProt A0A078BTK0).
T3 sequence (A0A078BTK0 1-376): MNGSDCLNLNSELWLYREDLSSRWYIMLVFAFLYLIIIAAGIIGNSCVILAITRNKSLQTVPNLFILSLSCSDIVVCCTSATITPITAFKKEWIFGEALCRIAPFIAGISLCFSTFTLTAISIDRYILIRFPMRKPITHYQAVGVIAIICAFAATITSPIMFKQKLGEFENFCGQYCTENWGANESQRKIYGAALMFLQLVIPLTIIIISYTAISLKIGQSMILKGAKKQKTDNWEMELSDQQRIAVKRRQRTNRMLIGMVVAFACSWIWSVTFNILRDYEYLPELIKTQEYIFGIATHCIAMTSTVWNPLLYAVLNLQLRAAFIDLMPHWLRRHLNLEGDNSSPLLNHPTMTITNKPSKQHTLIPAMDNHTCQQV
In words: cAMP reporter gene assay, Gi/o (inhibition of forskolin-induced cAMP), NPR-4b. Conditions: 1 µM forskolin set to 1.00, transiently transfected HEK293 cells, mean of at least three independent experiments. In short, it runs like this:
(§1)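 HEK293 cells transiently co-transfected with receptor and CRE-luciferase reporter (pGL4.29), stimulated with peptides in serum-free DMEM for 4 h with 1 μM forskolin added for Gi/o readout. Luminescence measured after lysis; maximal signal taken as strongest response to any peptide at that receptor; mean ± SEM, ≥3 experiments.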

In experiment [4] the target is T4, NPR-5b (Caenorhabditis elegans, UniProt Q6F3C9).
T4 sequence (Q6F3C9 1-433): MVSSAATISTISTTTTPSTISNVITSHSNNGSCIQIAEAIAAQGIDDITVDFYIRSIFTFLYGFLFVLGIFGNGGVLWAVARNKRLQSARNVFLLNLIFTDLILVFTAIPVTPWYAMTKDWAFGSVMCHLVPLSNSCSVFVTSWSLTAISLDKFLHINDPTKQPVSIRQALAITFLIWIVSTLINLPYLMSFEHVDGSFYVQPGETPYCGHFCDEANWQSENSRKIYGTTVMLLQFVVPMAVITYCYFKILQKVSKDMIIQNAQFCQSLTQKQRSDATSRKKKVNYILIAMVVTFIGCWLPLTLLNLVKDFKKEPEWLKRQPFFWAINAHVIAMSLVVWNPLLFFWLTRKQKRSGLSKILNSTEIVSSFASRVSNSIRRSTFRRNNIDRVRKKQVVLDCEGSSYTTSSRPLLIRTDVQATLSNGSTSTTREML
In words: cAMP reporter gene assay, Gi/o (with forskolin), NPR-5b. Conditions: 1 µM forskolin set to 1.00, values > 1 = cAMP stimulation, transiently transfected HEK293 cells, mean of at least three independent experiments. In outline: as §1

Consider “TPDINPAWYASRGIRPVGRF-NH2 [PrRP20, human prolactin-releasing peptide, 20 residues, reference compound]”, for which the “cAMP, x-fold of forskolin (mean), NPR-3” value in experiment [1] (0.1 µM peptide) is on record as 1.00 x-fold of forskolin; in experiment [1] (10 µM peptide) it was 1.23 x-fold of forskolin. The “cAMP, x-fold of forskolin (mean), NPR-11” value in experiment [2] (0.1 µM peptide) is 0.90 x-fold of forskolin; in experiment [2] (10 µM peptide), 0.65 x-fold of forskolin. The figures for the “cAMP, x-fold of forskolin (mean), NPR-4b” value in experiment [3] (0.1 µM peptide) and in experiment [3] (10 µM peptide) were 1.10 x-fold of forskolin and 0.67 x-fold of forskolin, respectively. Besides, the “cAMP, x-fold of forskolin (mean), NPR-5b” value in experiment [4] (0.1 µM peptide) is 0.90 x-fold of forskolin; in experiment [4] (10 µM peptide), 1.05 x-fold of forskolin.
For “TSGPLGNLAEELNGYSRKKGGFSFRF-NH2 [QRFP26, human pyroglutamylated RFamide peptide, 26 residues, reference compound]”, the results for the “cAMP, x-fold of forskolin (mean), NPR-3” value in experiment [1] (0.1 µM peptide) and in experiment [1] (10 µM peptide) were 0.90 x-fold of forskolin and 0.97 x-fold of forskolin, respectively. The entries for the “cAMP, x-fold of forskolin (mean), NPR-11” value in experiment [2] (0.1 µM peptide) and in experiment [2] (10 µM peptide) were 0.14 x-fold of forskolin and 0.06 x-fold of forskolin, respectively. Further, the “cAMP, x-fold of forskolin (mean), NPR-4b” value in experiment [3] (0.1 µM peptide) was 0.89 x-fold of forskolin; in experiment [3] (10 µM peptide), 0.34 x-fold of forskolin. The “cAMP, x-fold of forskolin (mean), NPR-5b” value in experiment [4] (0.1 µM peptide) was 0.84 x-fold of forskolin; in experiment [4] (10 µM peptide), 2.19 x-fold of forskolin.
